Laboratory results published in US20120270237A9, “METHODS FOR THE IDENTIFICATION OF KINASE INTERACTING MOLECULES AND FOR THE PURIFICATION OF KINASE PROTEINS” (Cellzone AG, priority 2009, published 2012).

Tests used:
ULK1 = biological target: T1, ULK1 (Homo sapiens, UniProt O75385); assay: Kinobeads competition binding, L-363 cell lysate; conditions: 10 μM free compound, L-363 lysate
T1 construct: endogenous in cells; host or cells: L-363 (DSMZ ACC49), treated with MG132 before harvest
Protocol: (§1) To one aliquot of cell lysate 10 μM of the free compound (FIG. 3, CZC31326) was added and allowed to bind to proteins in the lysate. Then the affinity matrix with the immobilized compound was added to capture proteins that were not interacting with the previously added free compound. Beads were separated from the lysate and bead bound proteins were eluted in SDS sample buffer and subsequently separated by SDS-Polyacrylamide gel electrophoresis (FIG. 8). Suitable gel bands were cut out and subjected to in-gel proteolytic digestion with trypsin. The second lysate aliquot was processed identically, however no free compound was added (DMSO solvent control). Peptides originating from samples 1 and 2 were labeled with iTRAQ reagents (iTRAQ 114 and iTRAQ 117) and the combined samples were analyzed with a nano-flow liquid chromatography system coupled online to a tandem mass spectrometer (LC-MS/MS) experiment followed by iTRAQ reporter ion quantification in the MS/MS spectra as described in Example 2.
(§2) For this experiment the human plasma cell leukaemia line L-363 was used (German Collection of Microorganisms and Cell Cultures, DSMZ number ACC49, Braunschweig, Germany). Cells were treated for three hours with 20 μM of the proteasome inhibitor MG132 (Z-Leu-Leu-Leu-al, Sigma C2211) prior to cell harvesting.

INSR = biological target: T2, INSR (Homo sapiens, UniProt P06213); assay: Kinobeads competition binding, L-363 cell lysate; conditions: 10 μM free compound, L-363 lysate
T2 construct: capturing and identification of kinases from L-363 cell lysate; endogenous in cells; host or cells: L-363 (DSMZ ACC49), treated with MG132 before harvest
T2 sequence (P06213 28-1382): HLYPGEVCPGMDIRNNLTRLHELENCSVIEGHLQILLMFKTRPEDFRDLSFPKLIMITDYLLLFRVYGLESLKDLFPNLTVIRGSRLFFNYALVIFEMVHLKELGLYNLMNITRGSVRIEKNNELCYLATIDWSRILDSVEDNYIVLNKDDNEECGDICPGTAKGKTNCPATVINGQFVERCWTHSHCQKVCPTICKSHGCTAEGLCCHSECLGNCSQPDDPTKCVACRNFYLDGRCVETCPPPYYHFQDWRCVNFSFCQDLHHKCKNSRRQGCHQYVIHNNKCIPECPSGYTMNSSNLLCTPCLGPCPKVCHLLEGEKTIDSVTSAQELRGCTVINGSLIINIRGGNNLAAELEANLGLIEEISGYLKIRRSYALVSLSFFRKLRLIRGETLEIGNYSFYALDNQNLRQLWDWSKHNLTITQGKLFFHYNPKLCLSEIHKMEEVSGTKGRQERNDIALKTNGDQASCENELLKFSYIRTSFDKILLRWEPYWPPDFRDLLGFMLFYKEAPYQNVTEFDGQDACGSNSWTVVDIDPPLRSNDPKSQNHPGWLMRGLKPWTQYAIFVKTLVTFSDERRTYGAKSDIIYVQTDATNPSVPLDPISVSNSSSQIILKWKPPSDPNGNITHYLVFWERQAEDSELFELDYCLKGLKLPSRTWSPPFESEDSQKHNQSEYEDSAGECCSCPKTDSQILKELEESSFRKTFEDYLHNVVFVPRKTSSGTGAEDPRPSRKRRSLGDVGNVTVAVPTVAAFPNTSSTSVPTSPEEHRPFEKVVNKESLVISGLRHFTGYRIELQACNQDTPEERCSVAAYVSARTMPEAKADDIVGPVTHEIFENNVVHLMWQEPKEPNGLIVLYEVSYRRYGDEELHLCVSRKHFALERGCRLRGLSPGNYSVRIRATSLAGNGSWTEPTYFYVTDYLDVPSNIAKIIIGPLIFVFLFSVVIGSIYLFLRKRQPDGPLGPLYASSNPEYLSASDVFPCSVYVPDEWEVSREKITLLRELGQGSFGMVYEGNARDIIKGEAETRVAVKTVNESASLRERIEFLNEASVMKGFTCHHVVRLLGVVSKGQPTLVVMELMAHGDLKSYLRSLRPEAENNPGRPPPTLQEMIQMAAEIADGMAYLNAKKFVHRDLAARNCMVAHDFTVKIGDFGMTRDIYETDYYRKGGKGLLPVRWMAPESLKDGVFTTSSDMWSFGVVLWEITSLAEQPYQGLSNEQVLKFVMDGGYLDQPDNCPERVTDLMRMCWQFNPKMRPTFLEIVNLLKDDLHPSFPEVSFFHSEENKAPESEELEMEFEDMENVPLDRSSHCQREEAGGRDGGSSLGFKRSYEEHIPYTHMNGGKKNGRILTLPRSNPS
Protocol: as §1, §2

NEK1 = biological target: T3, NEK1 (Homo sapiens, UniProt Q96PY6); assay: Kinobeads competition binding, L-363 cell lysate; conditions: 10 μM free compound, L-363 lysate
T3 construct: capturing and identification of kinases from L-363 cell lysate; endogenous in cells; host or cells: L-363 (DSMZ ACC49), treated with MG132 before harvest
Protocol: as §1, §2

JAK3 = biological target: T4, JAK3 (Homo sapiens, UniProt P52333); assay: Kinobeads competition binding, L-363 cell lysate; conditions: 10 μM free compound, L-363 lysate
T4 construct: capturing and identification of kinases from L-363 cell lysate; endogenous in cells; host or cells: L-363 (DSMZ ACC49), treated with MG132 before harvest
T4 sequence (P52333 whole entry): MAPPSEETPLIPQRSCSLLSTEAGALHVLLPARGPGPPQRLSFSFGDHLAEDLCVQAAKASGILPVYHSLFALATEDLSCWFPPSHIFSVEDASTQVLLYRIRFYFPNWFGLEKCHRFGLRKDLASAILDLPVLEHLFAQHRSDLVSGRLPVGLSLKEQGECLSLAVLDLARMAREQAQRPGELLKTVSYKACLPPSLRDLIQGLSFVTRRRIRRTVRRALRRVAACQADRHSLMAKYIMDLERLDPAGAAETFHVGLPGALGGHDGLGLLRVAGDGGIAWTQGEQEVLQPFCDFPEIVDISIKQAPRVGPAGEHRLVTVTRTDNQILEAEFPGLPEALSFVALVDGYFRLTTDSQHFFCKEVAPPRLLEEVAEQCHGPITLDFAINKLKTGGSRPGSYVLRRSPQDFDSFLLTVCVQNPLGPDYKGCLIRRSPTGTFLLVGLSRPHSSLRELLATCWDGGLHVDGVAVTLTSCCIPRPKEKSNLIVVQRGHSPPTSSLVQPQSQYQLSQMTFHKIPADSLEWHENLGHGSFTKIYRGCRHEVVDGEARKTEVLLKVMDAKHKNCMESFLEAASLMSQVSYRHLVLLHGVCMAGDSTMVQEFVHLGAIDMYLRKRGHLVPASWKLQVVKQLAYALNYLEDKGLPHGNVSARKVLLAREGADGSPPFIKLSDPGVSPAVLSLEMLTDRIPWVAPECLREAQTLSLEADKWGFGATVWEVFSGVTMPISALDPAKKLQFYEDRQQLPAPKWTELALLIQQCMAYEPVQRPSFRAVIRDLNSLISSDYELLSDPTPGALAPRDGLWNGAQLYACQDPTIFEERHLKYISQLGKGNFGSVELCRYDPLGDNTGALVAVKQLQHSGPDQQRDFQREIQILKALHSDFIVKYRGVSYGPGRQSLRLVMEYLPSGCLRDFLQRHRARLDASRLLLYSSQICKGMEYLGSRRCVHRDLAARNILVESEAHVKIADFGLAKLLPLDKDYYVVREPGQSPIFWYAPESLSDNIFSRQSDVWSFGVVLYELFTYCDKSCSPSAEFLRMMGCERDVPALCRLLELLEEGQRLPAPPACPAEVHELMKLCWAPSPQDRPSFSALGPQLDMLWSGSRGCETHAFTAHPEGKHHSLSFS
Protocol: as §1, §2

NEK7 = biological target: T5, NEK7 (Homo sapiens, UniProt Q8TDX7); assay: Kinobeads competition binding, L-363 cell lysate; conditions: 10 μM free compound, L-363 lysate
T5 construct: capturing and identification of kinases from L-363 cell lysate; endogenous in cells; host or cells: L-363 (DSMZ ACC49), treated with MG132 before harvest
Protocol: as §1, §2

HRI = biological target: T6, HRI (Homo sapiens, UniProt Q9BQI3); assay: Kinobeads competition binding, L-363 cell lysate; conditions: 10 μM free compound, L-363 lysate
T6 construct: capturing and identification of kinases from L-363 cell lysate; endogenous in cells; host or cells: L-363 (DSMZ ACC49), treated with MG132 before harvest
Protocol: as §1, §2

PIK4Ca = biological target: T7, PIK4Ca (Homo sapiens, UniProt P42356); assay: Kinobeads competition binding, L-363 cell lysate; conditions: 10 μM free compound, L-363 lysate
T7 construct: capturing and identification of kinases from L-363 cell lysate; endogenous in cells; host or cells: L-363 (DSMZ ACC49), treated with MG132 before harvest
Protocol: as §1, §2

NIK = biological target: T8, NIK (Homo sapiens, UniProt Q99558); assay: Kinobeads competition binding, L-363 cell lysate; conditions: 10 μM free compound, L-363 lysate
T8 construct: capturing and identification of kinases from L-363 cell lysate; endogenous in cells; host or cells: L-363 (DSMZ ACC49), treated 3 h with 20 uM MG132 before harvest
T8 sequence (Q99558 whole entry): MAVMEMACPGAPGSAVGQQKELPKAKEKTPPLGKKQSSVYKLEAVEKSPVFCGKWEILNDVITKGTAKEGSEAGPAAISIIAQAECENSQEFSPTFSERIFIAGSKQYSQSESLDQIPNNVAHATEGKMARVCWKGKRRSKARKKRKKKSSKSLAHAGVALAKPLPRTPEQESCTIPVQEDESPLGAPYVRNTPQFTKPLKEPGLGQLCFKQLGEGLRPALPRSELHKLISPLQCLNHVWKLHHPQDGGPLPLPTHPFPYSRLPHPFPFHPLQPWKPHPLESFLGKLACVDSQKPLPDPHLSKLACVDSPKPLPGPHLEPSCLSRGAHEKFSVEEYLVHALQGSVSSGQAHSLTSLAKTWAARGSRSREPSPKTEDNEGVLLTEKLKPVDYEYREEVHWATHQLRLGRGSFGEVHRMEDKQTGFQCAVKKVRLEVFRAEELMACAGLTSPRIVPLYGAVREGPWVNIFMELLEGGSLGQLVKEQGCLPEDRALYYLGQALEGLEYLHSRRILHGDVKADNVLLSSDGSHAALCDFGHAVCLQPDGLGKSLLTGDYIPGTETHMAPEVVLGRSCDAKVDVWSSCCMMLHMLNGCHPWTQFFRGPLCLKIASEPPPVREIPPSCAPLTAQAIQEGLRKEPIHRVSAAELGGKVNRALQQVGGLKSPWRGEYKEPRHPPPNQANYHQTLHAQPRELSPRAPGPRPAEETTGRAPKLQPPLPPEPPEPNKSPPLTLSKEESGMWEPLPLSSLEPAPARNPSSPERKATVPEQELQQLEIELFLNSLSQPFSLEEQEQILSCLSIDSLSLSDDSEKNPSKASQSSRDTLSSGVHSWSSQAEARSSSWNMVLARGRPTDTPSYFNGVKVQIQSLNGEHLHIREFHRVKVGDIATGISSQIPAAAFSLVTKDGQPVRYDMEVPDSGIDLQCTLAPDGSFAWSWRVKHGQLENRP
Protocol: as §1, §2

ULK3 = biological target: T9, ULK3 (Homo sapiens, UniProt Q6PHR2); assay: Kinobeads competition binding, L-363 cell lysate; conditions: 10 μM free compound, L-363 lysate
T9 sequence (Q6PHR2 1-472): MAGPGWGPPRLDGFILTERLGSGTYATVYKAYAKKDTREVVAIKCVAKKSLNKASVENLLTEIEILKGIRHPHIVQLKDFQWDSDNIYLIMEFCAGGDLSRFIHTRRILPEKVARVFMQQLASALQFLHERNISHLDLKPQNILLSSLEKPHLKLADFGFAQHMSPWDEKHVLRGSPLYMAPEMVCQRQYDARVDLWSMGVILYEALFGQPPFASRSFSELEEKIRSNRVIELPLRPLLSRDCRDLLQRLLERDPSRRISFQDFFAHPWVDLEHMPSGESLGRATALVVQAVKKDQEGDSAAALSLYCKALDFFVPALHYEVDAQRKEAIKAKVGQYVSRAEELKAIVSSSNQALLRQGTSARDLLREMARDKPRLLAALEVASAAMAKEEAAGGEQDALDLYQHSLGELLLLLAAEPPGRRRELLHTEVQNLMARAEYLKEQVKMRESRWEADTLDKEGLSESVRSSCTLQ
Protocol: as §1, §2

DYRK1A = biological target: T10, DYRK1A (Homo sapiens, UniProt Q13627); assay: Kinobeads competition binding, L-363 cell lysate; conditions: 10 μM free compound, L-363 lysate
T10 construct: capturing and identification of kinases from L-363 cell lysate; endogenous in cells; host or cells: L-363 (DSMZ ACC49), treated with MG132 before harvest
Protocol: as §1, §2

MSK2 = MSK2 (Homo sapiens, UniProt O75676); assay: Kinobeads competition binding, HeLa Placenta lysate mix; parameters: endogenous in cells; conditions: 10 μM free compound
Chain of MSK2 (O75676 whole entry): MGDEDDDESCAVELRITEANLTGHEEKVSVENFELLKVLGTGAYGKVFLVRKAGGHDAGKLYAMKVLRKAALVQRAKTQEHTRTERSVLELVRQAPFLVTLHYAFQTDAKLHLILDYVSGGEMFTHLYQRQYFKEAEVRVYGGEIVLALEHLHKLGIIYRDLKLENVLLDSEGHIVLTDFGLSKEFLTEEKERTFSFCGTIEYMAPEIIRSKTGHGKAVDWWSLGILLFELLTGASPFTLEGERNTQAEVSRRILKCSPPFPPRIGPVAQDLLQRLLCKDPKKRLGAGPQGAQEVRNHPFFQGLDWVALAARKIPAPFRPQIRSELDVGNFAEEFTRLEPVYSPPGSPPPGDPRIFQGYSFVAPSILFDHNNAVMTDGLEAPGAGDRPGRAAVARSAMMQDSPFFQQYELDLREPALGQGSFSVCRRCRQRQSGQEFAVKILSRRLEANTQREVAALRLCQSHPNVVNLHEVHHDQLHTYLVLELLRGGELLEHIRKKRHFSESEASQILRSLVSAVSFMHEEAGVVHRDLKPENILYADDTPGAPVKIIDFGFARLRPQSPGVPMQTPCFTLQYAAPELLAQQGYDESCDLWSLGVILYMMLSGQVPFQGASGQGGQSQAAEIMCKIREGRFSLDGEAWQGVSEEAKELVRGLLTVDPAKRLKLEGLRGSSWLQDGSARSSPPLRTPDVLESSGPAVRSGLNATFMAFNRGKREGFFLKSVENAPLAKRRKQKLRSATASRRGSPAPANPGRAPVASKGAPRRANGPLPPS
Protocol: as §1, with “10).” for “8).”

IKKe = biological target: T11, IKKe (Homo sapiens, UniProt Q14164); assay: as above; parameters: endogenous in cells; conditions: 10 μM free compound
T11 sequence (Q14164 1-716): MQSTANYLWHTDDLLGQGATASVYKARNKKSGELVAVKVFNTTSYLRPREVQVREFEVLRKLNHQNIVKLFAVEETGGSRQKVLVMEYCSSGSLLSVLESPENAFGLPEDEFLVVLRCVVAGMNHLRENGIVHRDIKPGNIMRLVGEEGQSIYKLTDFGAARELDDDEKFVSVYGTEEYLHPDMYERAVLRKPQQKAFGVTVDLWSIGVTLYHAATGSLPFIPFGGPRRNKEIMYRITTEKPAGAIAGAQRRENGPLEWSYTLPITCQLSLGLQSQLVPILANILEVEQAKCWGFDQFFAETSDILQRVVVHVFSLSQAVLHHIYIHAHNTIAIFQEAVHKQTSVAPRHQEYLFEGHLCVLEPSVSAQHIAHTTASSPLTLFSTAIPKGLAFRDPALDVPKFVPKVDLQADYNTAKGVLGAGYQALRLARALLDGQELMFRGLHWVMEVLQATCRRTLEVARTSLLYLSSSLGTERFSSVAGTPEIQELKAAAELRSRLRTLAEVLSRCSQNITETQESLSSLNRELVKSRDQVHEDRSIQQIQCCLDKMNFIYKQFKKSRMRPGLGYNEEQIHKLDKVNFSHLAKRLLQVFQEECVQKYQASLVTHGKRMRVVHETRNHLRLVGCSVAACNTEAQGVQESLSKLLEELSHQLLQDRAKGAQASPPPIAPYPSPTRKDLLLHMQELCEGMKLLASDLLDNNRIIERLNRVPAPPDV
Protocol: as §1, with “10).” for “8).”

MARK2 = MARK2 (Homo sapiens, UniProt Q7KZI7); assay: as above; parameters: endogenous in cells; conditions: 10 μM free compound
Chain of MARK2 (Q7KZI7 whole entry): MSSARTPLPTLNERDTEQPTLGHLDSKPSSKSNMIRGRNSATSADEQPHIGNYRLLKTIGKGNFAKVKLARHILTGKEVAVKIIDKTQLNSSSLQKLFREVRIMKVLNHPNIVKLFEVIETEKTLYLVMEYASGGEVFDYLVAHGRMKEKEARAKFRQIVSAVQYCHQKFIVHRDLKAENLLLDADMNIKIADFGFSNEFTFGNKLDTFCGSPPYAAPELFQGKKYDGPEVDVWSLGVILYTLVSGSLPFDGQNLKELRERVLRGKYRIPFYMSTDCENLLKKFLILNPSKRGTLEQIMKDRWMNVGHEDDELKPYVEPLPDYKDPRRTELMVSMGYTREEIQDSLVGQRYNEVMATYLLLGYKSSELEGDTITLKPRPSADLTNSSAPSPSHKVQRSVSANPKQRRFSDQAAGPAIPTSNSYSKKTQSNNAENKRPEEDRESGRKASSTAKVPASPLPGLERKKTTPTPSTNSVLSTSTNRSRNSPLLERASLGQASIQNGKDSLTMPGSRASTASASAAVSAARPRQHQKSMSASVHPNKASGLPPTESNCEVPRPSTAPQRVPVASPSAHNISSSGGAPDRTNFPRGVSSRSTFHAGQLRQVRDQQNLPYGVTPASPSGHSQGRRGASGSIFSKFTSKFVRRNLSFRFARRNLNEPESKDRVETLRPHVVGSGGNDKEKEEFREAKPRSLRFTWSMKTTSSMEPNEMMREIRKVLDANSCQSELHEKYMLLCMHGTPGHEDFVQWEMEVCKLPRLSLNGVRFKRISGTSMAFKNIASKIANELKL
Protocol: as §1, with “10).” for “8).”

Competition % (ULK1): 96.5% | inhibition at 10 µM (INSR): 90.1% | inhibition at 10 µM (NEK1): 95.7% | inhibition at 10 µM (JAK3): 98.1% | inhibition at 10 µM (NEK7): 93.9% | inhibition at 10 µM (HRI): 95.8% | inhibition at 10 µM (PIK4Ca): 86% | inhibition at 10 µM (NIK): 98% | Competition % (ULK3): 98.5% | inhibition at 10 µM (DYRK1A): 96.5% | inhibition at 10 µM (MSK2): 95.3% | inhibition at 10 µM (IKKe): 89.7% | inhibition at 10 µM (MARK2): 93.7%
SMILES: CS(=O)(=O)Nc1ccccc1Nc1nc(Nc2cccc(OCCN)c2)ncc1Cl [CZC31326, N-(2-(2-(3-(2-aminoethoxy)phenylamino)-5-chloropyrimidin-4-ylamino)phenyl)methanesulfonamide]
